In paper PMC12508063, “Chloroindazole based estrogen receptor β ligands with favorable pharmacokinetics promote functional remyelination and visual recovery” (Scientific Reports, 2025):

Assays:
[1] = system: EAE mice; assay: EAE clinical disease score; assay type: in vivo, C57BL/6J mouse; details: 5 mg/kg/day SC from peak disease
Procedure: EAE induction and treatment: EAE was induced in 8–10-week-old wild-type C57BL/6J mice using MOG₃₅-₅₅ peptide[11],[14],[23]–[25]. Mice were scored daily using a standard clinical scale (0–5) and tested for their ability to stay on a rotarod. […] At peak disease (18–22 days post-immunization), animals were grouped into EAE+Vehicle, EAE+K102, and EAE+K110.
Fig. 3 Experimental design for treatment effects in EAE. (A) Experimental plan. […] Following emulsion injection, mice were injected with pertussis (PTX). Mice were scored for their clinical EAE score daily. EAE mice (red) show signs of disease starting at days 8–17. At peak disease between the days […], therapeutic treatment started and continued daily until the end of the experiment (D35-45). […] N = 6–8 mice/group. Two-Way unbalanced ANOVA with Dunnett’s multiple comparisons test was performed. […]
EAE induction and treatment: Eight to ten-week-old wild-type C57BL/6J mice were induced with active EAE using MOG35-55 peptide as previously described (1-5). […] Animals were scored daily for clinical EAE scores as follows: 0, unaffected; 1, complete tail limpness; 2, failure to right upon attempt to roll over; 3, partial hind limb paralysis; 4, complete hind limb paralysis; […]. At peak disease 18-22 dpi, mice were scored and separated into 3 groups: EAE+V, EAE+SHK-K102, and EAE+K110. […]

[2] = Stability in human plasma; assay type: in vitro ADME
[3] = plasma
[4] = plasma; remark: listed apart in the source
[5] = hepatocytes
[6] = hepatocytes, 0.25 h
[7] = system: primary mouse OPCs; assay: OL differentiation in primary mouse OPC culture (MBP, DAPI); assay type: cell-based; details: 10 nM and 100 nM, concentration-dependent
Description: Mouse and Human primary cell cultures: Primary OPC/OL culture were isolated from the cortices of postnatal day 0–1 C57BL/6J mice of both sexes, using established protocols[11],[20],[21]. Mouse OPC and Neuronal Co-cultures: Primary neuronal cultures were established in Neurobasal medium with B27 and plated on poly-L-lysine-coated coverslips. After 12 days, OPCs were isolated, counted, and added to neuronal cultures and media was replaced with neuronal and proliferation media for 3 days, then switched to maturation media that maintained both neurons and OLs. Human iPSC-derived OPCs (Tempo’s iOligo™) were expanded, cryopreserved, and later plated on Matrigel-coated coverslips. After 3 days in growth medium, cells were treated for 3 weeks with T3 containing maturation medium. Differentiation into myelin-producing OLs was assessed using O4 (OL surface marker on pre-OLs) and myelin basic protein (MBP) immunohistochemistry. In all conditions compounds or vehicle were added to culture during differentiation for either 5 days (mouse) or 18 days (human).
Immunocytochemistry and Image Analysis of cell cultures: After treatment, cells were fixed and stained for MBP and DAPI. Coverslips were imaged using a confocal microscope at 10× and 40× objectives. Cell densities were quantified using ImageJ and normalized to control conditions. MBP-positive cells, their process extensions, and highly branched OLs were counted to assess differentiation. Co-culture images were analyzed for MBP and β3-tubulin colocalization using JACoP[22] in ImageJ, with results validated by manual quantification.
Primary OL Progenitor cells (OPC) and Neuronal Cultures: OPC and cortical neuronal cultures were prepared from the cortices of postnatal day P0-P1 C57BL/6J mice of both sexes, following established protocols (1, 2);(3). The single-cell suspension was divided into two tubes. One tube was treated with warm Neuronal Basal media, counted, and plated onto poly-L-lysine (PLL)-coated glass coverslips. The second tube was resuspended in glial growth medium, composed of DMEM-F12 supplemented with 10% fetal bovine serum, and placed in a PLL-coated culture flask for 8–10 days until confluent. Primary OPCs were then isolated by shaking and either co-cultured with primary neurons or plated onto poly-D-lysine-coated glass coverslips (three coverslips per condition, 2x10^6 cells per coverslip). The OPCs were allowed to attach for three days, followed by five days in differentiating media (DMEM-F12 with Sato media containing triiodothyronine and thyroxine) supplemented with various analogues and remyelinating compounds. For comparison, a negative control (vehicle, consisting of the media and ethanol mixture used to dissolve the analogues and remyelinating compounds) and a normal control (differentiating media alone) were included in the experiments.
Quantification of Mature OLs and Co-culture axon myelination: At the conclusion of the treatment period, cells were fixed and subjected to immunocytochemistry to evaluate myelin basic protein (MBP) expression, co-stained with the nuclear marker DAPI (shown in blue). […] Cell counting was performed using the ImageJ multipoint tool, and cell densities were calculated by dividing the counts by the image area (mm²). […]
To assess OL differentiation, the number of MBP-positive (MBP+) cells and process extensions exceeding the diameter of the cell body were quantified.

[8] = target: CYP1A2 (Homo sapiens, UniProt P05177); assay: in vitro
[9] = system: multiple sclerosis patients; details: oral estriol combined with glatiramer acetate (GA), Phase 2 trial; cited from earlier work

Chain of CYP1A2 (P05177 whole entry): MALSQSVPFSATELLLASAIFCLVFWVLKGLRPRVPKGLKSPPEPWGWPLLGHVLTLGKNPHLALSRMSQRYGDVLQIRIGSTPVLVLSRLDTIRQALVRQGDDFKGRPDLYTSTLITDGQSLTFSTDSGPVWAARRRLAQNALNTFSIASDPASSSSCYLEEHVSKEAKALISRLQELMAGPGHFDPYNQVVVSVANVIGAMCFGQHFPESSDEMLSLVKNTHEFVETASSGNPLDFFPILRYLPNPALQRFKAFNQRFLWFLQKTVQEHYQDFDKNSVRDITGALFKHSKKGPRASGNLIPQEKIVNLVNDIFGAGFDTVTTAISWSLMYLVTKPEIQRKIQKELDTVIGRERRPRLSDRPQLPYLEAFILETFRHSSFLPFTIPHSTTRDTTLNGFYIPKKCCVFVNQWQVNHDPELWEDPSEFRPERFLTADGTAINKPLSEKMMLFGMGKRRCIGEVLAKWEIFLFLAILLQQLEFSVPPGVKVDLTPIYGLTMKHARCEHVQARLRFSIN

Oc1ccc(-n2nc3ccc(O)cc3c2Cl)cc1 [Compound K101, IndCl]
EAE clinical disease [1]: decrease in EAE clinical disease
% Remaining at 6 hr in Human Plasma [2]: 91.37%
Protein Binding (% Bound) Mouse [3]: 97.74%
Protein Binding (% Bound) Human [4]: 98.05%
Hepatocyte Stability (Human) CLint [5]: 78.30 µL/min/mg protein
Hepatocyte Stability (Human) % Remaining (15 min) ([5]; 0.25 h): 57.83%
Hepatocyte Stability (Mouse) % Remaining (15 min) [6]: 10.94%
number of MBP+ cells vs vehicle [7]: significantly increased

Cc1nc2c([nH]1)c(=O)n(C)c(=O)n2Cc1ccco1 [Furafylline]
inhibition at 10 µM [8]: 91.7%

C[C@]12CC[C@@H]3c4ccc(O)cc4CC[C@H]3[C@@H]1C[C@@H](O)[C@@H]2O [estriol]
reduction in annualized relapse rate compared to placebo [9]: 32%
